Data published in patent US20140243239A1, “MULTIPLEXED KINASE INHIBITOR BEADS AND USES THEREOF” (University of North Carolina at Chapel Hill, priority 2011, published 2014).

Columns and labels:
[1] = system: C3Tag tumors; assay: In vivo tumorigenesis experiment, C3Tag TNBC GEMM (tumor volume); parameters: species or system mouse; details: 21 days, AZD6244 20 mg/kg, sorafenib 30 mg/kg in diet
Procedure: In vivo tumorigenesis experiments: Animal handling and procedures were approved by the University of North Carolina at Chapel Hill Institutional Animal Care and Use Committee and followed the NIH guidelines. Male C3Tag mice were bred with wild type females to produce experimental offspring. Mice were examined for tumors weekly until a palpable mass was found. Treatment began the same day. Tumor size was assessed twice weekly by caliper measurements of tumor areas ((width)2×length))/2 for 21 days. Percent change of tumor volume was calculated using (Final volume−Initial Volume)/Initial Volume and graphed using R (http://www.r-project.org/). Drugs were incorporated into the diet of mice to achieve a daily dose of AZD6244 20 mg/kg and sorafenib 30 mg/kg. Food was provided ab libitum and the amount of daily food intake was pre-determined using Jackson Labs Phenome Database. Tumors at harvest were cut in half and either snap-frozen in liquid nitrogen and stored at −80° C. or placed in neutral buffered 10% formalin solution.

[2] = system: SUM159-R cells; assay: Growth of AZD6244-resistant SUM159-R cells; type: cell-based, human; details: 25 μM AZD6244
Procedure: (§1) Cell Culture: MDA-MB-231 cells were grown in DMEM/F12 supplemented with 10% FBS. SUM-159 cells were grown in DMEM/F12 supplemented with 10% FBS 1 μg/mL hydrocortisone, and 5 μg/mL insulin. SUM159-R cells were continually grown in the presence of 5 μM AZD6244. For SILAC labeling, cells were grown for five doublings in arginine- and lysine-depleted media (as above) supplemented with either unlabeled L-arginine (42 mg/L) and L-lysine (71 mg/L) or equimolar amounts of heavy isotope labeled [13C6,15N4]arginine (Arg10) and [13C6]lysine (Lys6) (Cambridge Isotope Laboratories). Proliferation was quantified using Cell-Titer Glo Luminescent Cell Viability Assay (Promega). Fresh media containing DMSO or kinase inhibitors was added daily and experiments were performed in triplicate.
(§2) Generation of AZD6244 resistant SUM159 cells: SUM159 cells were cultured in DMEM/F12 supplemented with 10% FBS media containing 5 μM AZD6244. Media was changed every 2 days, maintaining inhibitor concentrations of 5 μM AZD6244.

[3] = system: ERK; assay: MEK/ERK activation in C3Tag tumors (western blot); type: in vivo, mouse; details: AZD6244 20 mg/kg 28 days; sorafenib 30 mg/kg 26 days
Procedure: (§3) Treatment began the same day. Tumor size was assessed twice weekly by caliper measurements of tumor areas ((width)2×length))/2 for 21 days. […] Drugs were incorporated into the diet of mice to achieve a daily dose of AZD6244 20 mg/kg and sorafenib 30 mg/kg. […] Tumors at harvest were cut in half and either snap-frozen in liquid nitrogen and stored at −80° C. or placed in neutral buffered 10% formalin solution.
Western blotting: Proteins from cell lysates were separated by SDS-PAGE chromatography, transferred to nitrocellulose membranes, and probed with the indicated primary antibodies. Antibodies recognizing pAKT (S473), pAKT (T308), AURA, pAXL (Y702), AXL, c-Myc, DDR1, EGFR, pERK1/2 (T202/Y204), pHER3 (Y1197), MAX, pMEK1/2 (S217/S221), MEK1/2, MKP3, pP70S6K (T389), pPDGFRβ (Y751), pPDGFRβ (Y1009), pPDGFR (Y857), PDGFRβ, pRAF (S338), pRSK1 (T359/S363), pVEGFR2 (Y1175), VEGFR2 were obtained from Cell Signaling Technology. Antibodies for Cyclin A2, Cyclin B1, Cyclin D1, ERK2, RAF, and pRAF (S259) were obtained from Santa Cruz Biotechnology. The antibody recognizing Bim was obtained from Chemicon. The antibody recognizing p-c-Myc (S62) was obtained from Abeam. Secondary HRP-anti-rabbit and HRP-anti-goat secondary antibodies were from Jackson Immunoresearch Laboratories and Santa Cruz Biotechnology, respectively. […]

[4] = system: SUM159 cells; assay: SUM159 cell growth (Cell-Titer Glo, cell counts); type: cell-based, human; details: 5 μM MEK inhibitor (FIG. 2A)
Procedure: as §1

[5] = system: MDA-MB-231 cells; assay: MDA-MB-231 cell growth (Cell-Titer Glo); type: cell-based, human; details: 5 μM MEK inhibitor (FIG. 9A)
Procedure: as §1

[6] = system: ERK1/2; assay: Western blot of MEK/ERK signaling in SUM159 cells; type: cell-based, human; details: 15 min-4 h, SUM159 and MDA-MB-231 cells
From the text: (§4) Detailed methods and antibodies are provided in Supplemental Experimental Procedures.
(§5) Western blotting: Proteins from cell lysates were separated by SDS-PAGE chromatography, transferred to nitrocellulose membranes, and probed with the indicated primary antibodies. Antibodies recognizing pAKT (S473), pAKT (T308), AURA, pAXL (Y702), AXL, c-Myc, DDR1, EGFR, pERK1/2 (T202/Y204), pHER3 (Y1197), MAX, pMEK1/2 (S217/S221), MEK1/2, MKP3, pP70S6K (T389), pPDGFRβ (Y751), pPDGFRβ (Y1009), pPDGFR (Y857), PDGFRβ, pRAF (S338), pRSK1 (T359/S363), pVEGFR2 (Y1175), VEGFR2 were obtained from Cell Signaling Technology. Antibodies for Cyclin A2, Cyclin B1, Cyclin D1, ERK2, RAF, and pRAF (S259) were obtained from Santa Cruz Biotechnology. The antibody recognizing Bim was obtained from Chemicon. The antibody recognizing p-c-Myc (S62) was obtained from Abeam. Secondary HRP-anti-rabbit and HRP-anti-goat secondary antibodies were from Jackson Immunoresearch Laboratories and Santa Cruz Biotechnology, respectively. Western blots were visualized by incubation with SuperSignal West Pico Chemiluminescent Substrate (Thermo Scientific).

[7] = system: RTKs; assay: RTK expression in C3Tag tumors (western blot); type: in vivo, mouse
Procedure: as §3, §5

[8] = system: ERK1/2; assay: ERK activity in SUM159-R cells (western blot); type: cell-based, human
Procedure: as §4, §2, §5

## Cn1cnc2c(F)c(Nc3ccc(Br)cc3Cl)c(C(=O)NOCCO)cc21 [AZD6244]
[1]
  mice with tumor regression: 30%
[2]
  growth of SUM159-R cells: growth arrested
[3]
  tumor MEK and ERK compared to untreated animals: strongly activated
[4]
  growth of SUM159 cells: inhibited growth
[5]
  growth of MDA-MB-231 cells: inhibited growth
[6]
  MEK and ERK, early response: rapidly inhibited
[7]; AZD6244 20 mg/kg 28 days, sorafenib 30 mg/kg 26 days
  expression of RTKs in C3Tag tumors versus untreated: elevated
[7]; AZD6244 20 mg/kg, 2 and 7 days
  PDGFRβ expression in C3Tag tumors: strongly induced
[8]; 25 μM AZD6244
  ERK activation in SUM159-R cells: inhibited ERK activation
[8]; 50 μM AZD6244
  ERK activity in SUM159-R cells: can be inhibited
